Assay results taken from US6303596A, “Use of taurolidine for treatment of leukemias” (priority 2000, dated 2001).

Columns and labels:
Type in all cases: cell-based, human
TNFα = test: LPS-induced TNFα expression/secretion by MM6 cells, ELISA; conditions: 4 h
Description: FIG. 3A and FIG. 3B are graphs depicting taurolidine inhibition of LPS-induced alpha […] (TNFα) expression by monocytic cells as determined by assay procedures. FIG. 3A represents MM6 cells; FIG. 3B represents PBMC. The cells were induced with LPS (hatched bars: 100 ng/ml LPS in RPMI+10% BCS; solid bars: 10 ng/ml in AIM-V+0.01% BCS) in the presence of varying concentrations of taurolidine. After four hours, cell supernatants were collected for TNFα ELISA. Data are expressed as percent of TNFα levels measured in cell cultures treated with LPS alone (no taurolidine or vehicle). Experiments were performed with duplicate samples and were repeated at least three times. Values shown in FIG. 3A are from a representative experiment. Values shown in FIG. 3B are mean±SEM of three experiments.
All cells were cultured in a 5% CO2 atmosphere at 37° C. MM6 cells were grown in RPMI supplemented with 10% BCS, 2 mM L-glutamine, and 50 μg/ml gentamicin (RPMI+10% BCS). In some experiments, MM6 cells were rinsed once with HBSS without Ca^++ or Mg^++ and once with AIM-V before finally being resuspended in AIM-V supplemented with 0.01% BCS (AIM-V+0.01% BCS). […] AIM-V was supplemented with a low amount of BCS (0.01%) in order to provide a source of LPS-binding protein, which enhances the response of monocytic cells to LPS. Ulevitch, R. J. and Tobias, P. S., "Recognition of endotoxin by cells leading to transmembrne signaling," Curr Opin Immunol 6:125 (1994). HL-60, REH, and Jurkat were cultured in RPMI supplemented with 10% heat inactivated fetal bovine serum (FBS), 2 mM L-glutamine, and 50 μg/ml gentamicin. ECV304 were cultured in M199 supplemented with 10% FBS, mM L-glutamine, and 50 μg/ml gentamicin. GM5387 was cultured in MEM supplemented with 20% FBS, 2 mM L-glutamine, and 50 μg/ml gentamicin.
For induction of TF or TNFα expression, MM6 cells or PBMC were cultured either in RPMI supplemented with 10% BCS or in AIM-V+0.01% BCS, and stimulated by adding LPS to final concentrations of 10 to 100 ng/ml. […]

GM5387 [1] = test: TUNEL / propidium iodide flow cytometry, GM5387; conditions: GM5387, 6 hours after treatment
Description: In the second method, DNA fragmentation was detected via TUNEL assay according to the manufacturer's instructions. With this methodology, 2×10^6 cells were fixed with 2% paraformaldehyde, permeabilized with 0.1% Triton X-100/0.1% citrate, incubated at 37° C. with terminal deoxynucleotidyl transferase and FITC-dUTP, rinsed and analyzed by flow cytometry. Enhanced FITC signal indicates apoptosis-specific DNA fragmentation. Gavriali, et al, "Identification of programmed cell death in situ via specific labeling of nuclear DNA fragmentation," J Cell Biol 119:493 (1992). Parallel aliquots of unfixed cells were treated with PI and FITC-conjugated anti-CD14 and analyzed by flow cytometry, in order to identify cells with permeable cell membranes (since PI binds to DNA but is excluded from cells with intact plasma membranes) and also to determine the cell-specificity of the apoptotic signal.
In another study, TUNEL assays were performed on all cell lines 6 hours after cells were initially exposed to taurolidine (cells were treated for 4 hours, rinsed, and then incubated for 2 more hours before TUNEL assay was performed).
. Taurolidine and anisomycin induced apoptosis in MM6, HL-60, and Jurkat cells (Table VIII). MM6 and HL-60 cells were similarly effected, with >80% TUNEL-positive cells after 6 hours. […]
Data are percent of total cell-size events, and are expressed as mean ± […]

GM5387 [2] = test: subcellular-sized events by flow cytometry, GM5387; conditions: GM5387, after taurolidine treatment
Description: Less than 0.1% of ECV304 or GM5387 cells were TUNEL-positive 6 hours after treatment with taurolidine or anisomycin (Table VIII). Therefore, neither of these agents induce rapid DNA fragmentation in these cell types. However, there was approximately a 70% increase in the number of subcellular-sized events recorded by flow cytometry after taurolidine treatment of these cells, indicating some effect of taurolidine on cell integrity. These cell fragments were not stained by propidium iodide, consistent with them being apoptotic bodies.

O=S1(=O)CCN(CN2CCS(=O)(=O)NC2)CN1 [taurolidine, 4,4'-methylenebis(perhydro-1,2,4-thiadiazin 1,1-dioxide)] was tested, and the “effect on LPS-induced TNFα secretion” value (TNFα; MM6, intermediate concentrations, particularly 25 μg/ml taurolidine) was “markedly stimulating TNFα secretion”, the “inhibition of LPS-induced TNFα secretion” value (TNFα; MM6, taurolidine 75 μg/ml) was “maximal inhibition” and the “DNA fragmentation (TUNEL positivity)” value (GM5387 [1]) was “did not demonstrate evidence for fragmentation of DNA”. For the same compound, the “increase in the number of subcellular-sized events” value (GM5387 [2]) was about 70%.
